Measured values published in US8791148B2, “Substituted benzimidazolone derivatives, medicaments comprising them and their use” (AbbVie Deutschland GmbH & Co. KG, priority 2006, dated 2014).

These molecules were tested against T1, human vasopressin V1b receptor (Homo sapiens, UniProt P47901) (assay: Vasopressin V1b receptor binding assay). Settings: membranes from CHO-K1 cells with stably expressed human V1b receptors; displacement of 1.5 nM 3H-AVP; read-out: V1b receptor affinity (affinity constant Ki).
T1 construct: expressed in transfected cells; host or cells: CHO-K1 (cell line hV1b-3H2_CHO), membrane preparation
T1 sequence (P47901 1-424): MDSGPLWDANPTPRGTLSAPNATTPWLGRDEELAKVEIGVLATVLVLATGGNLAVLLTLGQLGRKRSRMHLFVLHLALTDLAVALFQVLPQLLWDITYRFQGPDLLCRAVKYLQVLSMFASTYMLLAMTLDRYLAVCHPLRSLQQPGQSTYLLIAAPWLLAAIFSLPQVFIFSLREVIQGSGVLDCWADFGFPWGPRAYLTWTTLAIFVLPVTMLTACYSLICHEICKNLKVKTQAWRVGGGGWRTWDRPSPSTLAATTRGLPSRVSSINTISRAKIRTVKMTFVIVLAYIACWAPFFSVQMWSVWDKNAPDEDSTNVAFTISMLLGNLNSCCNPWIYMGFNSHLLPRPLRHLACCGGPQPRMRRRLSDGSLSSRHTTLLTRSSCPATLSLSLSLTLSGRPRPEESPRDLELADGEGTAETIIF
Experimental: Vasopressin V1b Receptor Binding Assay:
The test substances were dissolved in a concentration of 10^−2 M in DMSO and further diluted to 5×10^−4 M to 5×10^−9 M in DMSO. This series of DMSO predilutions was diluted 1:10 with assay buffer. The substance concentration was again diluted 1:5 in the assay mixture (2% DMSO in the mixture).
The membrane pellet was again homogenized and centrifuged as described and then taken up in 50 mM Tris-HCl, pH 7.4, homogenized and stored in aliquots frozen in liquid nitrogen at −190° C.
The incubation buffer was: 50 mM Tris, 10 mM MgCl2, 0.1% BSA, pH 7.4. […] The nonspecific binding was determined with 1 uM AVP (Bachem #H1780). All determinations were carried out as triplicate determinations. After incubation (60 minutes at room temperature), the free radioligand was removed by vacuum filtration (Skatron cell harvester 7000) through Wathman GF/B glass fiber filter mats, and the filters were transferred into scintillation vials. The liquid scintillation measurement took place in a Tricarb model 2000 or 2200CA instrument (Packard). Conversion of the measured cpm into dpm was carried out with the aid of a standard quench series.
The binding parameters were calculated by nonlinear regression in SAS.
The above assay was used to measure the affinities of the compounds of the invention for the human vasopressin V1b receptor and to determine the affinity constants (Ki).

Ki [µM] | SMILES
0.1 to 0.5 | COc1ccc(C(C(=O)N2CCN(c3ccncc3)CC2)n2c(=O)n(S(=O)(=O)c3ccc(OC)cc3OC)c3ccc(Cl)cc32)cc1 (stereo not shown) [Example 1, 5-Chloro-1-(2,4-dimethoxybenzenesulfonyl)-3-[1-(4-methoxyphenyl)-2-oxo-2-(4-pyridin-4-ylpiperazin-1-yl)ethyl]-1,3-dihydrobenzimidazol-2-one]
0.1 to 0.5 | O=C(C(c1ccccc1)n1c(=O)n(S(=O)(=O)c2ccco2)c2ccc(Cl)cc21)N1CCN(c2ccncc2)CC1 (stereo not shown) [Example 2, 5-Chloro-1-(furan-2-sulfonyl)-3-[2-oxo-1-phenyl-2-(4-pyridin-4-ylpiperazin-1-yl)ethyl]-1,3-dihydrobenzimidazol-2-one]
0.5 to 10 | CN1CCN(C2CCN(C(=O)C(c3ccccc3)n3c(=O)n(S(=O)(=O)c4cccc5cccnc45)c4ccc(Cl)cc43)CC2)CC1 (stereo not shown) [Example 3, 5-Chloro-3-{2-[4-(4-methylpiperazin-1-yl)piperidin-1-yl]-2-oxo-1-phenyl-ethyl}-1-(quinoline-8-sulfonyl)-1,3-dihydrobenzimidazol-2-one]
< 0.1 | COc1ccc(S(=O)(=O)n2c(=O)n(C(C(=O)N3CCN(c4ccncc4)CC3)c3ccccc3)c3cc(I)ccc32)cc1 (stereo not shown) [Example 4, 5-Iodo-1-(4-methoxybenzenesulfonyl)-3-[2-oxo-1-phenyl-2-(4-pyridin-4-ylpiperazin-1-yl)ethyl]-1,3-dihydrobenzimidazol-2-one]
0.1 to 0.5 | O=C(C(c1ccccc1)n1c(=O)n(S(=O)(=O)c2ccsc2)c2ccc(Cl)cc21)N1CCN(c2ccncc2)CC1 (stereo not shown) [Example 5, 5-Chloro-3-[2-oxo-1-phenyl-2-(4-pyridin-4-ylpiperazin-1-yl)ethyl]-1-(thiophene-3-sulfonyl)-1,3-dihydrobenzimidazol-2-one]
0.1 to 0.5 | COc1ccc(S(=O)(=O)n2c(=O)n(C(C(=O)N3CCN(c4ccncc4)CC3)c3ccccc3OC)c3cc(Cl)ccc32)cc1 (stereo not shown) [Example 6, 5-Chloro-1-(4-methoxybenzenesulfonyl)-3-[1-(2-methoxyphenyl)-2-oxo-2-(4-pyridin-4-ylpiperazin-1-yl)ethyl]-1,3-dihydrobenzimidazol-2-one]
0.5 to 10 | O=C(C(c1ccccc1)n1c(=O)n(S(=O)(=O)c2ccc(Cl)s2)c2ccc(Cl)cc21)N1CCN(c2ccncc2)CC1 (stereo not shown) [Example 7, 5-Chloro-1-(5-chlorothiophene-2-sulfonyl)-3-[2-oxo-1-phenyl-2-(4-pyridin-4-ylpiperazin-1-yl)ethyl]-1,3-dihydrobenzimidazol-2-one]
0.5 to 10 | COc1ccc(S(=O)(=O)n2c(=O)n(C(C(=O)N3CCN(C4CCN(C)CC4)CC3)c3ccccc3OC)c3cc(Cl)ccc32)c(OC)c1 (stereo not shown) [Example 8, 5-Chloro-1-(2,4-dimethoxybenzenesulfonyl)-3-{1-(2-methoxyphenyl)-2-[4-(1-methylpiperidin-4-yl)piperazin-1-yl]-2-oxoethyl}-1,3-dihydrobenzimidazol-2-one]
0.5 to 10 | COc1ccc(S(=O)(=O)n2c(=O)n(C(C(=O)N3CCN(C4CCN(C)CC4)CC3)c3ccccc3OC)c3cc(Cl)ccc32)cc1 (stereo not shown) [Example 9, 5-Chloro-1-(4-methoxybenzenesulfonyl)-3-{1-(2-methoxyphenyl)-2-[4-(1-methylpiperidin-4-yl)piperazin-1-yl]-2-oxoethyl}-1,3-dihydrobenzimidazol-2-one]
0.5 to 10 | COc1ccc(S(=O)(=O)n2c(=O)n(C(C(=O)N3CCN(C4CCN(C)CC4)CC3)c3ccccc3)c3cc(C#N)ccc32)c(OC)c1 (stereo not shown) [Example 10, 1-(2,4-Dimethoxybenzenesulfonyl)-3-{2-[4-(1-methylpiperidin-4-yl)piperazin-1-yl]-2-oxo-1-phenylethyl}-2-oxo-2,3-dihydro-1H-benzimidazole-5-carbonitrile]
0.5 to 10 | COc1ccc(S(=O)(=O)n2c(=O)n(C(C(=O)N3CCN(C4CCN(C)CC4)CC3)c3ccccc3)c3cc(C#N)ccc32)cc1 (stereo not shown) [Example 11, 1-(4-Methoxybenzenesulfonyl)-3-{2-[4-(1-methylpiperidin-4-yl)piperazin-1-yl]-2-oxo-1-phenylethyl}-2-oxo-2,3-dihydro-1H-benzimidazole-5-carbonitrile]
0.5 to 10 | COc1ccc(S(=O)(=O)n2c(=O)n(C(C(=O)N3CCN(c4ccncc4)CC3)c3ccccc3OC)c3cc(Cl)ccc32)c(OC)c1 (stereo not shown) [Example 12, 5-Chloro-1-(2,4-dimethoxybenzenesulfonyl)-3-[1-(2-methoxyphenyl)-2-oxo-2-(4-pyridin-4-ylpiperazin-1-yl)ethyl]-1,3-dihydrobenzimidazol-2-one]
0.5 to 10 | COc1ccccc1C(C(=O)N1CCN(c2ccncc2)CC1)n1c(=O)n(S(=O)(=O)c2cccc3cccnc23)c2ccc(Cl)cc21 (stereo not shown) [Example 13, 5-Chloro-3-[1-(2-methoxyphenyl)-2-oxo-2-(4-pyridin-4-ylpiperazin-1-yl)-ethyl]-1-(quinoline-8-sulfonyl)-1,3-dihydrobenzimidazol-2-one]
0.5 to 10 | COc1ccccc1C(C(=O)N1CCN(c2ccncc2)CC1)n1c(=O)n(S(=O)(=O)c2ccc(C#N)cc2)c2ccc(Cl)cc21 (stereo not shown) [Example 14, 4-{5-Chloro-3-[1-(2-methoxyphenyl)-2-oxo-2-(4-pyridin-4-ylpiperazin-1-yl)ethyl]-2-oxo-2,3-dihydrobenzimidazole-1-sulfonyl}benzonitrile]
0.5 to 10 | COc1ccccc1C(C(=O)N1CCN(C2CCN(C)CC2)CC1)n1c(=O)n(S(=O)(=O)c2cccc3cccnc23)c2ccc(Cl)cc21 (stereo not shown) [Example 15, 5-Chloro-3-{1-(2-methoxyphenyl)-2-[4-(1-methylpiperidin-4-yl)piperazin-1-yl]-2-oxoethyl}-1-(quinoline-8-sulfonyl)-1,3-dihydrobenzimidazol-2-one]
0.5 to 10 | COc1ccccc1C(C(=O)N1CCN(C2CCN(C)CC2)CC1)n1c(=O)n(S(=O)(=O)c2ccc(C#N)cc2)c2ccc(Cl)cc21 (stereo not shown) [Example 16, 4-(5-Chloro-3-{1-(2-methoxyphenyl)-2-[4-(1-methylpiperidin-4-yl)piperazin-1-yl]-2-oxoethyl}-2-oxo-2,3-dihydrobenzoimidazole-1-sulfonyl)benzonitrile]
< 0.1 | CCCN1CCN(C2CCN(C(=O)C(c3ccccc3)n3c(=O)n(S(=O)(=O)c4ccc(OC)cc4)c4ccc(Cl)cc43)CC2)CC1 (stereo not shown) [Example 17, 5-Chloro-1-(4-methoxybenzenesulfonyl)-3-{2-oxo-1-phenyl-2-[4-(4-propylpiperazin-1-yl)piperidin-1-yl]ethyl}-1,3-dihydrobenzimidazol-2-one]
0.1 to 0.5 | COc1ccc(S(=O)(=O)n2c(=O)n(C(C(=O)N3CCN(C4CCN(C)CC4)CC3)c3cccc(OC)c3)c3cc(Cl)ccc32)cc1 (stereo not shown) [Example 19, 5-Chloro-1-(4-methoxybenzenesulfonyl)-3-{1-(3-methoxyphenyl)-2-[4-(1-methylpiperidin-4-yl)piperazin-1-yl]-2-oxo-ethyl}-1,3-dihydrobenzimidazol-2-one]
< 0.1 | COc1ccc(S(=O)(=O)n2c(=O)n(C(C(=O)N3CCN(c4ccncc4)CC3)c3cccc(OC)c3)c3cc(Cl)ccc32)cc1 (stereo not shown) [Example 20, 5-Chloro-1-(4-methoxybenzenesulfonyl)-3-[1-(3-methoxyphenyl)-2-oxo-2-(4-pyridin-4-ylpiperazin-1-yl)ethyl]-1,3-dihydrobenzimidazol-2-one]
0.1 to 0.5 | COc1cccc(C(C(=O)N2CCN(c3ccncc3)CC2)n2c(=O)n(S(=O)(=O)c3ccc(OC)cc3OC)c3ccc(Cl)cc32)c1 (stereo not shown) [Example 21, 5-Chloro-1-(2,4-dimethoxybenzenesulfonyl)-3-[1-(3-methoxyphenyl)-2-oxo-2-(4-pyridin-4-ylpiperazin-1-yl)-ethyl]-1,3-dihydrobenzimidazol-2-one]
0.1 to 0.5 | COc1cccc(C(C(=O)N2CCN(C3CCN(C)CC3)CC2)n2c(=O)n(S(=O)(=O)c3ccc(C#N)cc3)c3ccc(Cl)cc32)c1 (stereo not shown) [Example 22, 4-(5-Chloro-3-{1-(3-methoxyphenyl)-2-[4-(1-methylpiperidin-4-yl)piperazin-1-yl]-2-oxoethyl}-2-oxo-2,3-dihydrobenzimidazol-1-sulfonyl)benzonitrile]
0.5 to 10 | CN1CCC(N2CCN(C(=O)C(c3ccccc3)n3c(=O)n(S(=O)(=O)c4ccc(C#N)cc4)c4ccc(C#N)cc43)CC2)CC1 (stereo not shown) [Example 23, 1-(4-Cyanobenzenesulfonyl)-3-{2-[4-(1-methylpiperidin-4-yl)piperazin-1-yl]-2-oxo-1-phenylethyl}-2-oxo-2,3-dihydro-1H-benzimidazole-5-carbonitrile]
